Test results: patent publication US11472769B2, “SSAO inhibitors and use thereof” (Eccogene (Shanghai) Co., Ltd., priority 2019, dated 2022)

Key:
Type in all cases: biochemical
recombinant hSSAO = recombinant hSSAO (Homo sapiens (Human), UniProt Q16853); assay: SSAO Activity Assay (MAO-Glo assay kit); conditions: 40 μM substrate, 30 mins pre-incubation
Procedure: (§1) The biological activities of the compounds of the present application can be assessed with methods and assays known in the art. For example, the potency of the compounds of the present application can be evaluated with an SSAO Activity Assay. Briefly, compounds of the present application can be applied to recombinant hSSAO, hMAO-A, and hMAO-B isoforms and the amine oxidase activity of the enzymes are measured after the addition and subsequent oxidation of the luminogenic substrate (e.g., with the MAO-Glo assay kit from Promega). The IC50 can be calculated, for example, by fitting the dose response curve using a 4-parameter non-linear regression routine.
(§2) Amine oxidase activity of recombinant hSSAO, hMAO-A, and hMAO-B isoforms are measured using the MAO-Glo assay kit (Promega, V1402). Ten nL test compounds (with DMSO as vehicle, 0.1% v/v for hSSAO, hMAO-A and hMAO-B) were added into assay plates by Echo, and pre-incubated with 5 μL of enzyme for 30 mins at room temperature before the addition of 5 μL of luminogenic substrate. The substrate concentration is 40 μM for human recombinant SSAO, 40 μM for human recombinant MAO-A, and 4 μM for human recombinant MAO-B. The hSSAO and hMAO-A assays were conducted in the MAO-A reaction buffer in the kit, and the MAO-B assay was conducted in the MAO-B reaction buffer. Oxidation of the substrate was conducted for 1 hr, before the addition of detecting reagent according the manufacture's protocol. The IC50 value of the tested compounds was calculated by fitting the dose response curve using a 4-parameter non-linear regression routine.

recombinant hMAO-A = recombinant hMAO-A (Homo sapiens (Human), UniProt P21397); assay: MAO-A activity assay (MAO-Glo assay kit); conditions: 40 μM substrate, 30 mins pre-incubation
Procedure: as §1, §2

recombinant hMAO-B = recombinant hMAO-B (Homo sapiens (Human), UniProt P27338); assay: MAO-B activity assay (MAO-Glo assay kit); conditions: 4 μM substrate, 30 mins pre-incubation
Procedure: as §1, §2

Sequence of recombinant hMAO-A (P21397 whole entry): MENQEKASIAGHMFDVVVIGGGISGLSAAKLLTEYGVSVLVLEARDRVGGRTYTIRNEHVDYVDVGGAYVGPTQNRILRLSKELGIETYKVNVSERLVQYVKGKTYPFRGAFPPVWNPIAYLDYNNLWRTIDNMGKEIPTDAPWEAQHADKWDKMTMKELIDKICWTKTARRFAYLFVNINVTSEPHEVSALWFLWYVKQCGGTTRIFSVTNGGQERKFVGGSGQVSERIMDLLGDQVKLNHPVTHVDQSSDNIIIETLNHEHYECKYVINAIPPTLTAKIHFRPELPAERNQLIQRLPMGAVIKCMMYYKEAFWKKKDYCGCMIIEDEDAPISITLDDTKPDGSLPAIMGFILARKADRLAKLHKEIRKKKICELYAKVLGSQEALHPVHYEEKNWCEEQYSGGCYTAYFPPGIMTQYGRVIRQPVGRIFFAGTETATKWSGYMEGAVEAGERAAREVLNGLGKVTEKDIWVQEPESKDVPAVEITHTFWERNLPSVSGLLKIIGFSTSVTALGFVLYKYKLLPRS
Sequence of recombinant hSSAO (Q16853 whole entry, canonical isoform): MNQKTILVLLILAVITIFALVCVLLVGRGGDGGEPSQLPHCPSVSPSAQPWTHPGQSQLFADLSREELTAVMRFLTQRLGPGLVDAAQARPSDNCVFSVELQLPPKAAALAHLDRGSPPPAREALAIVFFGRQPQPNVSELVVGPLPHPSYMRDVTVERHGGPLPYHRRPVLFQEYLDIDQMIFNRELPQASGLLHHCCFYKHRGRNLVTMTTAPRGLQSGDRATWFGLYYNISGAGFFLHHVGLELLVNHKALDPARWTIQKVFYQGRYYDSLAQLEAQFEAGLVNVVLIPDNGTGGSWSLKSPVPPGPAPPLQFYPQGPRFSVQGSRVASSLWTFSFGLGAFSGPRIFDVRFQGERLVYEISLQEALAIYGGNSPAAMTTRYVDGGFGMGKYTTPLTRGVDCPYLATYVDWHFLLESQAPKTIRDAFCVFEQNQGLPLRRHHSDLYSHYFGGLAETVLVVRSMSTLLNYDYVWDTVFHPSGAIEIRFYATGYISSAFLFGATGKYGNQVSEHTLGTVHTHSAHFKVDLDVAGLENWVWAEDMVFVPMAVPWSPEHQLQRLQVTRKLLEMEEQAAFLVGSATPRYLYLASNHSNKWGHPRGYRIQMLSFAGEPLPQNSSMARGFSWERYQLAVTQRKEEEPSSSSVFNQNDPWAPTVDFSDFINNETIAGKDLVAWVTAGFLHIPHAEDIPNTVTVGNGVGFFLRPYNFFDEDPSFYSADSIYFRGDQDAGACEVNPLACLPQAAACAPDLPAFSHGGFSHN
Sequence of recombinant hMAO-B (P27338 whole entry): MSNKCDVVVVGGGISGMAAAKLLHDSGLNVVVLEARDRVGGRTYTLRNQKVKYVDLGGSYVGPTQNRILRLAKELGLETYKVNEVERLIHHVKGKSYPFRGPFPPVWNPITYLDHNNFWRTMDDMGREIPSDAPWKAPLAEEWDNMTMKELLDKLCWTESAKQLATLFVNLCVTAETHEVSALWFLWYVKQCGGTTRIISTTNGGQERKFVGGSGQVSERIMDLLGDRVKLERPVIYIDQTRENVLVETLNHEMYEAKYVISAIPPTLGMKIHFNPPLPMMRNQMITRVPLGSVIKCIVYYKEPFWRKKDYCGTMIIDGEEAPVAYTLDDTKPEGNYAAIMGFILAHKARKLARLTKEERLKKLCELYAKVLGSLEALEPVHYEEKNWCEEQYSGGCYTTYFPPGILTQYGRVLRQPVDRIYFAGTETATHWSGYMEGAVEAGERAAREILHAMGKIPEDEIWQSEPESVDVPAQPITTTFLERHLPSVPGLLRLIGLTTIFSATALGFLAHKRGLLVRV

Compound | IC50 (recombinant hSSAO) | IC50 (recombinant hMAO-A) | IC50 (recombinant hMAO-B)
CC(C)(C)CC(=O)N1CCC(CS(=O)(=O)c2ccc(OC/C(=C/F)CN)cc2)CC1 [Compound 42, (E)-1-(4-(((4-((2-(aminomethyl)-3-fluoroallyl)oxy)phenyl)sulfonyl)methyl)piperidin-1-yl)-3,3-dimethylbutan-1-one] | 0.02 to 0.1 µM | > 30 µM | > 30 µM
NC/C(=C\F)COc1ccc(S(=O)(=O)CC2CCN(C(=O)C34CC5CC(CC(C5)C3)C4)CC2)cc1 [Compound 43, (E)-adamantan-1-yl(4-(((4-((2-(aminomethyl)-3-fluoroallyl)oxy)phenyl)sulfonyl)methyl)piperidin-1-yl)methanone] | 0.1 to 0.5 µM | 10 to 30 µM | 10 to 30 µM
NC/C(=C\F)COc1ccc(S(=O)(=O)Cc2cccc(C(=O)N3CCCC3)c2)cc1 [Compound 47, (E)-(3-(((4-((2-(aminomethyl)-3-fluoroallyl)oxy)phenyl)sulfonyl)methyl)phenyl)(pyrrolidin-1-yl)methanone] | 0.1 to 0.5 µM | > 30 µM | > 30 µM
NC/C(=C\F)COc1ccc(S(=O)(=O)CC2CCN(C(=O)CC3CC3)CC2)cc1 [Compound 48, (E)-1-(4-(((4-((2-(aminomethyl)-3-fluoroallyl)oxy)phenyl)sulfonyl)methyl)piperidin-1-yl)-2-cyclopropylethan-1-one] | 0.02 to 0.1 µM | > 30 µM | > 30 µM
NC/C(=C\F)COc1ccc(S(=O)(=O)CC2CCN(C(=O)C3(C(F)(F)F)CC3)CC2)cc1 [Compound 49, (E)-(4-(((4-((2-(aminomethyl)-3-fluoroallyl)oxy)phenyl)sulfonyl)methyl)piperidin-1-yl)(1-(trifluoromethyl)cyclopropyl) methanone] | 0.02 to 0.1 µM | > 30 µM | > 30 µM
NC/C(=C\F)COc1ccc(S(=O)(=O)CC2CCN(C(=O)C3CCC3)CC2)cc1 [Compound 50, (E)-(4-(((4-((2-(aminomethyl)-3-fluoroallyl)oxy)phenyl)sulfonyl)methyl)piperidin-1-yl)(cyclobutyl)methanone] | 0.02 to 0.1 µM | > 30 µM | > 30 µM
NC/C(=C\F)COc1ccc(S(=O)(=O)CC2CCN(C(=O)C3CC(F)(F)C3)CC2)cc1 [Compound 51, (E)-(4-(((4-((2-(aminomethyl)-3-fluoroallyl)oxy)phenyl)sulfonyl)methyl)piperidin-1-yl)(3,3-difluorocyclobutyl)methanone] | 0.02 to 0.1 µM | > 30 µM | > 30 µM
NC/C(=C\F)COc1ccc(S(=O)(=O)CC2CCOCC2)c(Cl)c1 [compound 8, (E)-2-((3-chloro-4-(((tetrahydro-2H-pyran-4-yl)methyl)sulfonyl)phenoxy)methyl)-3-fluoroprop-2-en-1-amine] | 0.02 to 0.1 µM | 10 to 30 µM | –
NC/C(=C\F)COc1ccc(S(=O)(=O)CC23CCC(O)(CC2)CC3)cc1 [compound 17, (E)-4-(((4-((2-(aminomethyl)-3-fluoroallyl)oxy)phenyl)sulfonyl)methyl)bicyclo[2.2.2]octan-1-ol] | 0.02 to 0.1 µM | – | 10 to 30 µM
NC/C(=C\F)COc1ccc(S(=O)(=O)CC23CCC(C4(O)CC4)(CC2)CC3)cc1 [compound 18, (E)-1-(4-(((4-((2-(aminomethyl)-3-fluoroallyl)oxy)phenyl)sulfonyl)methyl)bicyclo[2.2.2]octan-1-yl)cyclopropan-1-ol] | – | – | 10 to 30 µM
COCS(=O)(=O)c1ccc(OC/C(=C/F)CN)cc1 [compound 28, (E)-3-fluoro-2-((4-((methoxymethyl)sulfonyl)phenoxy)methyl)prop-2-en-1-amine] | – | – | 10 to 30 µM
NC/C(=C\F)COc1ccc(S(=O)(=O)COCC2CCN(C(=O)C3(C(F)(F)F)CC3)CC2)cc1 [compound 35, (E)-(4-((((4-((2-(aminomethyl)-3-fluoroallyl)oxy)phenyl)sulfonyl)methoxy)methyl)piperidin-1-yl)(1-(trifluoromethyl)cyclopropyl)methanone] | 0.02 to 0.1 µM | – | 10 to 30 µM
NC/C(=C\F)COc1ccc(S(=O)(=O)CC2CCN(C(=O)C34CC(F)(C3)C4)CC2)cc1 [compound 40, (E)-(4-(((4-((2-(aminomethyl)-3-fluoroallyl)oxy)phenyl)sulfonyl)methyl)piperidin-1-yl)(3-fluorobicyclo[1.1.1]pentan-1-yl)methanone] | 0.02 to 0.1 µM | 10 to 30 µM | –
NC/C(=C\F)COc1ccc(S(=O)(=O)CC23CCC(NC(=O)C4CC4)(CC2)CC3)cc1 [compound 76, (E)-N-(4-(((4-((2-(aminomethyl)-3-fluoroallyl)oxy)phenyl)sulfonyl)methyl)bicyclo[2.2.2]octan-1-yl)cyclopropanecarboxamide] | – | – | 10 to 30 µM
CC1CCN(C23CCC(CS(=O)(=O)c4ccc(OC/C(=C/F)CN)cc4)(CC2)CC3)C1=O (stereo not shown) [compound 83, (E)-1-(4-(((4-((2-(aminomethyl)-3-fluoroallyl)oxy)phenyl)sulfonyl)methyl)bicyclo[2.2.2]octan-1-yl)-3-methylpyrrolidin-2-one] | – | – | 10 to 30 µM
CC(C)C(=O)N(C)CC(C)(C)CS(=O)(=O)c1ccc(OC/C(=C/F)CN)cc1 [compound 96, (E)-N-(3-((4-((2-(aminomethyl)-3-fluoroallyl)oxy)phenyl)sulfonyl)-2,2-dimethylpropyl)-N-methylisobutyramide] | – | – | 10 to 30 µM
CC(C)(C)C(=O)N1CCN(CS(=O)(=O)c2ccc(OC/C(=C/F)CN)cc2)C(=O)C1 [compound 133, (E)-1-(((4-((2-(aminomethyl)-3-fluoroallyl)oxy)phenyl)sulfonyl)methyl)-4-pivaloylpiperazin-2-one] | 0.1 to 0.5 µM | 10 to 30 µM | –
CC(C)(C)C(=O)NC12CCC(CS(=O)(=O)c3ccc(OC/C(=C/F)CN)cc3)(CC1)C2 [compound 145, (E)-N-(4-(((4-((2-(aminomethyl)-3-fluoroallyl)oxy)phenyl)sulfonyl)methyl)bicyclo[2.2.1]heptan-1-yl)pivalamide] | 0.02 to 0.1 µM | – | 10 to 30 µM

More lines, now with the values ahead:

IC50 (recombinant hSSAO) | IC50 (recombinant hMAO-A) | IC50 (recombinant hMAO-B) | Compound
< 0.02 µM | < 10 µM | < 10 µM | CS(=O)(=O)N1CCC(CS(=O)(=O)c2ccc(OC/C(=C/F)CN)cc2)CC1 [Compound 38, (E)-3-fluoro-2-((4-(((1-(methylsulfonyl)piperidin-4-yl)methyl)sulfonyl)phenoxy)methyl) prop-2-en-1-amine]
0.02 to 0.1 µM | 10 to 30 µM | – | N#CC1(CS(=O)(=O)c2ccc(OC/C(=C/F)CN)cc2)CCOCC1 [compound 12, (E)-4-(((4-((2-(aminomethyl)-3-fluoroallyl)oxy)phenyl)sulfonyl)methyl)tetrahydro-2H-pyran-4-carbonitrile]
0.02 to 0.1 µM | 10 to 30 µM | – | CC1(CS(=O)(=O)c2ccc(OC/C(=C/F)CN)cc2)CCN(C(=O)C2(C)CC2)CC1 [compound 57, (E)-(4-(((4-((2-(aminomethyl)-3-fluoroallyl)oxy)phenyl)sulfonyl)methyl)-4-methylpiperidin-1-yl)(1-methylcyclopropyl)methanone]
– | – | 10 to 30 µM | NC/C(=C\F)COc1ccc(S(=O)(=O)CC23CCC(C(=O)NC4CCC4)(CC2)CC3)cc1 [compound 64, (E)-4-(((4-((2-(aminomethyl)-3-fluoroallyl)oxy)phenyl)sulfonyl)methyl)-N-cyclobutylbicyclo[2.2.2]octane-1-carboxamide]
0.1 to 0.5 µM | – | 10 to 30 µM | NC/C(=C\F)COc1ccc(S(=O)(=O)Cc2ccc(C(=O)NC3CCC3)c(C(F)(F)F)c2)cc1 [compound 89, (E)-4-(((4-((2-(aminomethyl)-3-fluoroallyl)oxy)phenyl)sulfonyl)methyl)-N-cyclobutyl-2-(trifluoromethyl)benzamide]
0.02 to 0.1 µM | – | 10 to 30 µM | CCN(CC(C)(C)CS(=O)(=O)c1ccc(OC/C(=C/F)CN)cc1)C(=O)C(C)C [compound 98, (E)-N-(3-((4-((2-(aminomethyl)-3-fluoroallyl)oxy)phenyl)sulfonyl)-2,2-dimethylpropyl)-N-ethylisobutyramide]
0.02 to 0.1 µM | 10 to 30 µM | – | CC(C)C(=O)N1CCC(CS(=O)(=O)c2ccc(OC/C(=C/F)CN)cc2)C1 (stereo not shown) [compound 99, (E)-1-(3-(((4-((2-(aminomethyl)-3-fluoroallyl)oxy)phenyl)sulfonyl)methyl)pyrrolidin-1-yl)-2-methylpropan-1-one]
0.1 to 0.5 µM | 10 to 30 µM | – | CC1(C(=O)N2CCN(CS(=O)(=O)c3ccc(OC/C(=C/F)CN)cc3)C(=O)C2)CCC1 [compound 134, (E)-1-(((4-((2-(aminomethyl)-3-fluoroallyl)oxy)phenyl)sulfonyl)methyl)-4-(1-methylcyclobutane-1-carbonyl)piperazin-2-one]
0.02 to 0.1 µM | – | – | NC/C(=C\F)COc1ccc(S(=O)(=O)CC23CCC(C(=O)NC4CCC4)(CC2)C3)cc1 [compound 143, (E)-4-(((4-((2-(aminomethyl)-3-fluoroallyl)oxy)phenyl)sulfonyl)methyl)-N-cyclobutylbicyclo[2.2.1]heptane-1-carboxamide]
